Among the test systems are T-47D breast; SK-MEL-2 melanoma; A498 renal; HCC-2998 colon; RXF 393 renal; KM12 colon; HOP-62 NSCLC; MDA-MB-231 breast; SN12C renal; TK-10 renal.
Holding throughout (test): NCI tumour cell line growth inhibition, 48 h

Molecules are shown by their SMILES. “And” between values parts separate entries of the source, which are not always exact repeats. Equal values may be shown once.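 The compound was tested at five concentrations on cells cultured in 96-well plates, with a 48-hour exposure period. At the GI50, growth is halved. TGI: total growth inhibition.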

For the compound `C=C1C(=O)O[C@H]2[C@H]1CC/C(Cn1cc(-c3ccsc3)nn1)=C\CC[C@@]1(C)O[C@@H]21`, the GI50 was 2.03 µM with T-47D breast; 2.27 µM in the test on SK-MEL-2 melanoma; 2.65 µM with A498 renal; 1.84 µM in the test with HCC-2998 colon; 1.07 µM in the test with RXF 393 renal; 6.45 µM in the test with KM12 colon. The GI50 in the test on HOP-62 NSCLC was 4.9 µM; in the test with MDA-MB-231 breast, 1.75 µM; in the test with SN12C renal, 2.45 µM; in the test with TK-10 renal it was 1.52 µM. The TGI stood at 5.52 µM with T-47D breast; 5.34 µM in the test on SK-MEL-2 melanoma; 12.6 µM in the test with A498 renal; 3.42 µM in the test on HCC-2998 colon; 2.46 µM with RXF 393 renal; 19.6 µM with KM12 colon. Besides, the TGI was 18.9 µM with HOP-62 NSCLC, 3.61 µM with MDA-MB-231 breast, 7.33 µM in the test on SN12C renal and 3.16 µM with TK-10 renal.
Take `CC(C)=CCc1c(O)c(C(=O)CC(C)C)c(O)c2c(-c3ccccc3)cc(=O)oc12`: the GI50 with T-47D breast was 11.3 µM; with SK-MEL-2 melanoma, 6.18 µM; in the test with A498 renal, 7.4 µM; in the test with HCC-2998 colon, 11.7 µM; with RXF 393 renal, 15.8 µM; in the test with KM12 colon, 12 µM. The GI50 in the test with HOP-62 NSCLC is 15.4 µM; in the test with MDA-MB-231 breast, 8.26 µM; with SN12C renal it was 6.07 µM; with TK-10 renal, 9.98 µM. Besides, the TGI with T-47D breast is 42.1 µM; in the test on SK-MEL-2 melanoma, 28.7 µM; with A498 renal it was 28.8 µM; in the test on HCC-2998 colon, more than 50 µM; in the test on RXF 393 renal it was more than 50 µM; with KM12 colon, more than 50 µM. The TGI in the test on HOP-62 NSCLC was more than 50 µM; in the test on MDA-MB-231 breast it was 22 µM; in the test on SN12C renal it was more than 50 µM; with TK-10 renal it was more than 50 µM.
As to `NC(N)=NC(N)=Nc1ccc(S(N)(=O)=O)cc1`, the TGI in the test on T-47D breast, with SK-MEL-2 melanoma, with A498 renal, in the test with HCC-2998 colon, in the test on RXF 393 renal and in the test with KM12 colon was more than 100 µM in each case. The TGI with HOP-62 NSCLC, with MDA-MB-231 breast, in the test with SN12C renal and in the test on TK-10 renal was more than 100 µM in each case.
`Clc1ccc(COC(Cn2ccnc2)c2ccc(Cl)cc2Cl)c(Cl)c1` (stereo not given): the GI50 with T-47D breast is 2 µM; in the test on HCC-2998 colon it was 3.78 µM; with RXF 393 renal, 2.78 µM and 12.1 µM and 3.84 µM; in the test on KM12 colon, 4.36 µM; with HOP-62 NSCLC it was 2.07 µM; in the test on MDA-MB-231 breast, 2.15 µM. For the same compound, the GI50 is 2.63 µM in the test with SN12C renal and 10.7 µM in the test with TK-10 renal. In addition, the TGI with T-47D breast is 8.33 µM and 24.6 µM and 21.6 µM; with SK-MEL-2 melanoma it was 32.6 µM and 28.8 µM; in the test on A498 renal, 17.6 µM and 27.3 µM and 19.6 µM; in the test on HCC-2998 colon it was 14.9 µM and 35.6 µM and 26.3 µM; with RXF 393 renal, 10.5 µM and 26 µM and 14.5 µM; in the test with KM12 colon, 15.5 µM and 26.4 µM and 28.8 µM. Moreover, the TGI in the test with HOP-62 NSCLC is 5.73 µM and 27.2 µM and 26.6 µM; in the test with MDA-MB-231 breast, 12.9 µM and 26.2 µM and 24.6 µM; in the test on SN12C renal it was 11.7 µM and 27.1 µM and 20.7 µM; in the test on TK-10 renal, 22.9 µM and 29.6 µM.
With `O=C1CCC(N2C(=O)c3cccc(NCCOCCOCCNC(=O)c4cc5c(o4)C(=O)c4ccccc4C5=O)c3C2=O)C(=O)N1` (stereo not given), the GI50 in the test with T-47D breast is 2.46 µM; in the test on SK-MEL-2 melanoma it was 2.36 µM; with A498 renal it was 1.66 µM; in the test on HCC-2998 colon, 1.89 µM; in the test with RXF 393 renal, 1.67 µM; in the test with KM12 colon, 3.19 µM. For the same compound, the GI50 with HOP-62 NSCLC is 1.84 µM; in the test with MDA-MB-231 breast, 2.29 µM; in the test on SN12C renal it was 1.54 µM; in the test on TK-10 renal it was 3.81 µM. Besides, the TGI in the test with T-47D breast stood at 8.05 µM; in the test on SK-MEL-2 melanoma it was 6.46 µM; in the test on A498 renal, 3.12 µM; in the test on HCC-2998 colon it was 3.57 µM; with RXF 393 renal it was 3.21 µM; in the test on KM12 colon, 10.9 µM. For the same compound, the TGI in the test on HOP-62 NSCLC is 3.3 µM; in the test on MDA-MB-231 breast, 7.31 µM; with SN12C renal, 2.92 µM; in the test on TK-10 renal, 9.08 µM.
Take `CC(=Nc1ccccc1)C1=C(O)C(Cc2ccc(F)cc2)NC1=O` (stereo not given): the GI50 is 0.793 µM with T-47D breast; 0.423 µM in the test with SK-MEL-2 melanoma; 0.444 µM in the test with A498 renal; 1.73 µM in the test on HCC-2998 colon; 0.339 µM with RXF 393 renal; 0.4 µM with KM12 colon. Further, the GI50 with HOP-62 NSCLC is 0.959 µM; in the test on MDA-MB-231 breast, 1.7 µM; with SN12C renal it was 5.76 µM; with TK-10 renal it was 2.1 µM. For the same compound, the TGI with T-47D breast was more than 100 µM; in the test with SK-MEL-2 melanoma, more than 100 µM; with A498 renal, 5.04 µM; in the test with HCC-2998 colon, 40.1 µM; with RXF 393 renal, 1.74 µM; with KM12 colon, more than 100 µM. In addition, the TGI in the test on HOP-62 NSCLC, with MDA-MB-231 breast, in the test on SN12C renal and in the test with TK-10 renal was more than 100 µM each time.
Turning to `CCOC(=O)C(=O)C(/C(=N/N(C)C)C(=O)Nc1ccc(C)cc1C)c1nc2ccccc2[nH]c1=O` (stereo not given), the TGI in the test on T-47D breast, in the test with SK-MEL-2 melanoma, in the test with A498 renal, in the test with HCC-2998 colon, in the test with RXF 393 renal and in the test on KM12 colon was more than 100 µM throughout. In addition, the TGI with HOP-62 NSCLC, in the test on MDA-MB-231 breast, with SN12C renal and in the test on TK-10 renal was more than 100 µM each time.
Turning to `COc1cccc(NC(=O)c2ccc(NC3=C(Cl)C(=O)N(Cc4ccccc4)C3=O)cc2)c1`, the GI50 in the test with T-47D breast is 21.5 µM; in the test on A498 renal it was 22.2 µM; with HCC-2998 colon, 17 µM; in the test on RXF 393 renal, 2.09 µM; with KM12 colon, 16.9 µM; in the test on HOP-62 NSCLC, 19.1 µM. For the same compound, the GI50 with MDA-MB-231 breast was 16.7 µM; in the test with SN12C renal, 17.6 µM; in the test on TK-10 renal, 20.3 µM. Besides, the TGI in the test on T-47D breast is more than 100 µM; with A498 renal it was 48.9 µM; with HCC-2998 colon, 30.6 µM; with RXF 393 renal, 14.9 µM; in the test on KM12 colon, 40.3 µM; in the test with HOP-62 NSCLC, 34.8 µM. Moreover, the TGI in the test on MDA-MB-231 breast is 36.1 µM; with SN12C renal it was 37.1 µM; in the test on TK-10 renal it was 55 µM.
For the compound `Clc1nc(-c2ccccc2)nc(Cl)c1Cl`, the TGI is 28.5 µM in the test on T-47D breast; 31.5 µM with A498 renal; 20.5 µM with HCC-2998 colon; 18.9 µM in the test with RXF 393 renal; 25.3 µM in the test on KM12 colon; 32.3 µM in the test on HOP-62 NSCLC. Further, the TGI with MDA-MB-231 breast stood at 27.1 µM; in the test with SN12C renal, 31.4 µM; with TK-10 renal, 42.6 µM.

Source of the values: PubChem BioAssay (NCI).
